The test system of one data set is MDCK cells. The experiment in a line: cells. The data set is classed as cell-based. The settings on record: Canis lupus familiaris, 48 h, read-out: IC50 Value Tox (beside Flu A/NWS).
The subject of a further data set is HeLa cells. The data set is described as follows: Cytotoxicity in uninfected HeLa cell cultures, MTT cell viability assay. The data set is classed as cell-based. The note with it: MTT at 48 hours. As for the experimental part:
(§1) Mammalian cell lines, MDCK CCL34 and HeLa cells CCL2 (both obtained under those accession numbers from ATCC culture) are plated in 96 well microtiter dishes at a density of 3.5×10^4 cells per well and infected with virus at low multiplicity followed by treatment with drug 24 hours after plating of cells; drug concentrations range from 0.025-12.5 mM. MDCK cells are infected with influenza virus (strain A/NWS) and HeLA cells are infected with HRV 14-14VR-284 (obtained from ATCC) (human rhinovirus 14) or CVB3 VR30 (coxsackie virus B3 strain Nancy obtained from ATCC); replicate uninfected cell cultures are treated with drug as toxicity control. At 48 hours after infection the extent of virus growth is determined by ELISA in the case of influenza virus or by the MTT (tetrazolium dye) cell viability assay in the cases of HRV 14 and CVB3. The influenza A (A/NWS)VR-129 (ATCC) virus ELISA assay utilizes a primary monoclonal antibody to the virus hemagglutinin protein and a secondary antibody conjugated to B-galactosidase. Cytotoxicity of drugs in uninfected cell cultures is determined by MTT cell viability assay at 48 hours after drug treatment

For data set [1], the system named is influenza A virus (strain A/NWS). The note with it: mouse, in vivo.
Data set [2] deals with CVB3 (coxsackie virus B3 strain Nancy). The data set is described as follows: CVB3 growth in HeLa cells by MTT cell viability assay. The data set is classed as cell-based. The settings on record: Enterovirus B, MTT at 48 hours after infection. As for the experimental part: as §1
(Tetrazolium assays rely on reduction of a dye to a coloured formazan, in cell work by metabolically active cells.)

The test system of data set [3] is influenza virus (strain A/NWS). The experiment in a line: microbe, parasite or virus in culture. The settings on record: MDCK, 48 h, read-out: IC50 Value Flu A/NWS. The data set is classed as cell-based.
Data set [4] concerns HRV 14 (human rhinovirus 14). The experiment in a line: HRV 14 growth in HeLa cells by MTT cell viability assay. The data set is classed as cell-based. The note with it: Rhinovirus B, MTT at 48 hours after infection. As for the experimental part:
as §1

The next data set concerns the target VSV RNA polymerase (Vesicular stomatitis Indiana virus, UniProt P03523). In kind it is biochemical, Vesicular stomatitus virus (VSV).
Data set [5] addresses influenza virus RNA polymerase (Influenza A virus, UniProt P03431). The data set is classed as biochemical.
Setting [6] is: Homo sapiens, read-out: IC50 Value Tox (beside HRV 14).
The mark [7] stands for this setting: Homo sapiens, read-out: IC50 Value Tox (beside CVB3).
[8] abbreviates: read-out: IC50 Value Tox (beside CVB3).

Results on 13 compounds are retold here after patent US6110901A (priority 1992, dated 2000).

“And” between values parts separate entries of the source, which are not always exact repeats. Identical values can stand only once. Like-named read-outs stand apart in the source and are kept apart here. Bounds are passed on as bounds.

With `CO[C@H]1[C@@H](O)[C@H](n2cnc3c(=O)[nH]c(N)nc32)O[C@@H]1CO` [3'-OMeG], the IC50 in the data set on MDCK cells and in the data set with HeLa cells (setting [6]) was above 50000 µM in each case.
As for `CO[C@H]1[C@@H](O)[C@H](n2ccc(N)nc2=O)O[C@@H]1CO` [3'-OMeC], the IC50 in the data set on MDCK cells and with HeLa cells (setting [6]) was above 50000 µM in each case.
Turning to `Nc1ccn([C@@H]2O[C@H](CO)C[C@H]2O)c(=O)n1` [3'-dC, 3'-deoxyribocytosine], the “% ILS (increase in life span)” value in data set [1] is 10% and 20%. Moreover, in data set [1], the “% Survival (14 Days)” value is 0% and 10%. Moreover, the “Antiviral activity in murine model of influenza A virus infection” value in data set [1] was “minimal antiviral activity”. In data set [1], the “MST” value is 11 days and 12 days. The IC50 with MDCK cells stood at 5000 µM; in the data set on HeLa cells (setting [7]), 1800 µM; in the data set on HeLa cells (setting [6]), 1800 µM; in data set [2] it was 90 µM; in data set [3] it was 900 µM; in data set [4], 25 µM.
Regarding `[N-]=[N+]=N[C@H]1C[C@H](n2ccc(N)nc2=O)O[C@@H]1CO` [3'-AzdC], the IC50 in the data set on HeLa cells (setting [8]) is above 12500 µM.
As to `Nc1nc2c(ncn2[C@@H]2O[C@H](COP(=O)(O)OP(=O)(O)OP(=O)(O)O)C[C@H]2O)c(=O)[nH]1` [3'-d GTP, 3'-deoxy-GTP], at VSV RNA polymerase, the “% Inhibition” value was 13% and 7%; the “Effect on VSV RNA polymerase” value is given as “only weakly inhibitory”. In data set [5], the “% Inhibition” value worked out at 55% and the “Activity against the influenza virus RNA polymerase” value was “fairly good inhibitor”.
For the compound `CO[C@H]1[C@@H](O)[C@H](n2cnc3c(N)ncnc32)O[C@@H]1CO` [3'-OMeA], the IC50 in the data set on MDCK cells and with HeLa cells (setting [6]) was above 50000 µM each time.
Turning to `CO[C@H]1[C@@H](O)[C@H](n2ccc(=O)[nH]c2=O)O[C@@H]1CO` [3'-OMeU], the IC50 with MDCK cells and in the data set with HeLa cells (setting [6]) was above 50000 µM throughout.
Take `Nc1nc2c(ncn2[C@@H]2O[C@H](CO)C[C@H]2O)c(=O)[nH]1` [3'-dG, 3'-deoxyriboguanine]: the IC50 in the data set on MDCK cells was 2100 µM; in the data set on HeLa cells (setting [6]) it was 3400 µM; in data set [3] it was 270 µM; in data set [4], 280 µM.
Regarding `Nc1ccn([C@@H]2O[C@H](COP(=O)(O)OP(=O)(O)OP(=O)(O)O)C[C@H]2O)c(=O)n1` [3'-d CTP, 3'-deoxy-CTP], on VSV RNA polymerase, the “% Inhibition” value is given as 0% and the “Effect on VSV RNA polymerase” value is recorded as “does not inhibit”. In addition, in data set [5], the “Activity against the influenza virus RNA polymerase” value was “low to moderately inhibitory activity”.
On to `Nc1ncnc2c1ncn2[C@@H]1O[C@H](CO)C[C@H]1O` [3'-dA, 3'-deoxyriboadenine], for which the IC50 is 1400 µM in the data set with MDCK cells, 130 µM in the data set with HeLa cells (setting [6]), 800 µM in data set [3] and 48 µM in data set [4].
Turning to `O=c1ccn([C@@H]2O[C@H](COP(=O)(O)OP(=O)(O)OP(=O)(O)O)C[C@H]2O)c(=O)[nH]1` [3'-d UTP, 3'-deoxy UTP], the “Effect on VSV RNA polymerase” value at VSV RNA polymerase is given as “little or no effect”. Also, the “Activity against the influenza virus RNA polymerase” value in data set [5] was “moderately active”.
On to `[N-]=[N+]=N[C@H]1C[C@H](n2ccc(=O)[nH]c2=O)O[C@@H]1CO` [3'-AzdU], for which the IC50 in the data set with HeLa cells (setting [8]) is above 12500 µM.
Turning to `O=c1ccn([C@@H]2O[C@H](CO)C[C@H]2O)c(=O)[nH]1` [3'-dU, 3'-deoxyribouracil], the “MST” value in data set [1] is > 14 days and 10 days. In addition, the “Protection of animals in murine model of influenza A virus infection” value in data set [1] is “significant protection”. In data set [1], the “Toxicity in mice” value is “appears to have toxicity”. In addition, the IC50 worked out at 12500 µM in the data set on MDCK cells; 2400 µM in the data set on HeLa cells (setting [7]); 2400 µM in the data set on HeLa cells (setting [6]); 90 µM in data set [2]; 85 µM in data set [3]; 27 µM in data set [4].

The term % Inhibition denotes the share of the control response that was lost under treatment. Read a high % Inhibition as a strong effect.
